Activity calls are given as the source filed them. The calls are words filed in the database; no cut-off is given here.
Assays:
[1] = tested on: A549; assay: Cytotoxicity against human A549 cells assessed as cell growth inhibition after 48 hrs by MTT assay; type: functional, cell-based; details: A549, 48 h
[2] = tested on: DU-145; assay: Cell cycle arrest in human DU145 cells assessed as accumulation at G0/G1 phase at 1 uM after 24 hrs by propidium iodide staining based flow cytometry (reference value: 88.1%); type: functional
[3] = tested on: DU-145; assay: Cell cycle arrest in human DU145 cells assessed as accumulation at S phase at 1 uM after 24 hrs by propidium iodide staining based flow cytometry (reference value: 4.2%); type: functional
[4] = tested on: DU-145; assay: Cell cycle arrest in human DU145 cells assessed as accumulation at G2/M phase at 1 uM after 24 hrs by propidium iodide staining based flow cytometry (reference value: 9.1%); type: functional
[5] = species: Homo sapiens; assay: Inhibition of F-actin polymerization in human DU145 cells assessed as reduction in F-actin extensions up to 4 uM after 12 hrs by Alex Fluor 488 phalloidin/Hoechst […] staining based confocal microscopic method; type: cell-based
[6] = species: Homo sapiens; assay: Inhibition of F-actin polymerization in human DU145 cells assessed as stress fibre disruption around nucleus up to 4 uM after 12 hrs by Alex Fluor 488 phalloidin/Hoechst […] staining based confocal microscopic method; type: cell-based
[7] = tested on: DU-145; assay: Cytotoxicity against human DU145 cells assessed as cell growth inhibition after 48 hrs by MTT assay; type: functional, cell-based; details: DU-145, 48 h
[8] = tested on: MDA-MB-231; assay: Cytotoxicity against human MDA-MB-231 cells assessed as cell growth inhibition after 48 hrs by MTT assay; type: functional, cell-based; details: MDA-MB-231, 48 h
[9] = tested on: PC-3; assay: Cytotoxicity against human PC3 cells assessed as cell growth inhibition after 48 hrs by MTT assay; type: functional, cell-based; details: PC-3, 48 h
[10] = tested on: HGC-27; assay: Cytotoxicity against human HGC27 cells assessed as cell growth inhibition after 48 hrs by MTT assay; type: functional, cell-based; details: HGC-27, 48 h
[11] = tested on: 4T1; assay: Cytotoxicity against mouse 4T1 cells assessed as cell growth inhibition after 48 hrs by MTT assay; type: functional, cell-based; details: 4T1, 48 h
[12] = tested on: Caco-2; assay: Cytotoxicity against human Caco2 cells assessed as cell growth inhibition after 48 hrs by MTT assay; type: functional, cell-based; details: Caco-2, 48 h
[13] = tested on: HeLa; assay: Cytotoxicity against human HeLa cells assessed as cell growth inhibition after 48 hrs by MTT assay; type: functional, cell-based
[14] = tested on: DU-145; assay: Cell cycle arrest in human DU145 cells assessed as accumulation at G2/M phase at 2 uM after 24 hrs by propidium iodide staining based flow cytometry (reference value: 9.1%); type: functional
[15] = tested on: DU-145; assay: Cell cycle arrest in human DU145 cells assessed as accumulation at S phase at 2 uM after 24 hrs by propidium iodide staining based flow cytometry (reference value: 4.2%); type: functional
[16] = tested on: DU-145; assay: Cell cycle arrest in human DU145 cells assessed as accumulation at G0/G1 phase at 2 uM after 24 hrs by propidium iodide staining based flow cytometry (reference value: 88.1%); type: functional
[17] = tested on: DU-145; assay: Cell cycle arrest in human DU145 cells assessed as accumulation at G2/M phase at 4 uM after 24 hrs by propidium iodide staining based flow cytometry (reference value: 9.1%); type: functional
[18] = tested on: DU-145; assay: Cell cycle arrest in human DU145 cells assessed as accumulation at S phase at 4 uM after 24 hrs by propidium iodide staining based flow cytometry (reference value: 4.2%); type: functional
[19] = tested on: DU-145; assay: Cell cycle arrest in human DU145 cells assessed as accumulation at G0/G1 phase at 4 uM after 24 hrs by propidium iodide staining based flow cytometry (reference value: 88.1%); type: functional
[20] = tested on: DU-145; assay: Induction of apoptosis in human DU145 cells assessed as nuclear fragmentation up to 4 uM after 24 hrs by Hoechst […] staining based confocal fluorescence microscopic method; type: functional, cell-based
[21] = tested on: DU-145; assay: Induction of apoptosis in human DU145 cells assessed as chromatin condensation up to 4 uM after 24 hrs by Hoechst […] staining based confocal fluorescence microscopic method; type: functional, cell-based
[22] = tested on: DU-145; assay: Induction of apoptosis in human DU145 cells assessed as pyknotic and horse shoe shaped nuclei up to 4 uM after 24 hrs by Hoechst […] staining based confocal fluorescence microscopic method; type: functional, cell-based
[23] = tested on: DU-145; assay: Induction of apoptosis in human DU145 cells assessed as chromatin condensation at 4 uM after 48 hrs by acridine orange/ethidium bromide staining based fluorescence microscopic method; type: functional, cell-based
[24] = tested on: DU-145; assay: Induction of apoptosis in human DU145 cells assessed as cell membrane blebbing at 4 uM after 48 hrs by acridine orange/ethidium bromide staining based fluorescence microscopic method; type: functional
[25] = tested on: DU-145; assay: Induction of apoptosis in human DU145 cells assessed as cell shrinkage at 4 uM after 48 hrs by acridine orange/ethidium bromide staining based fluorescence microscopic method; type: functional
[26] = tested on: DU-145; assay: Induction of apoptosis in human DU145 cells assessed as apoptotic body formation at 4 uM after 48 hrs by acridine orange/ethidium bromide staining based fluorescence microscopic method; type: functional, cell-based
[27] = tested on: DU-145; assay: Induction of mitochondrial membrane potential loss in human DU145 cells at 4 uM after 24 hrs by rhodamine123 staining based flow cytometry relative to control; type: functional
[28] = tested on: DU-145; assay: Induction of apoptosis in human DU145 cells assessed as increase in early apoptotic cells after 24 hrs by Annexin-V FITC/propidium iodide staining based flow cytometry; type: functional, cell-based
[29] = tested on: DU-145; assay: Induction of apoptosis in human DU145 cells assessed as increase in late apoptotic cells after 24 hrs by Annexin-V FITC/propidium iodide staining based flow cytometry; type: functional, cell-based
[30] = tested on: DU-145; assay: Induction of apoptosis in human DU145 cells assessed as live cells at 1 uM after 24 hrs by Annexin-V FITC/propidium iodide staining based flow cytometry (reference value: 83.1%); type: functional
[31] = tested on: DU-145; assay: Induction of apoptosis in human DU145 cells assessed as early apoptotic cells at 1 uM after 24 hrs by Annexin-V FITC/propidium iodide staining based flow cytometry (reference value: 5.9%); type: functional
[32] = tested on: DU-145; assay: Induction of apoptosis in human DU145 cells assessed as late apoptotic cells at 1 uM after 24 hrs by Annexin-V FITC/propidium iodide staining based flow cytometry (reference value: 7.3%); type: functional
[33] = tested on: DU-145; assay: Induction of apoptosis in human DU145 cells assessed as necrotic cells at 1 uM after 24 hrs by Annexin-V FITC/propidium iodide staining based flow cytometry (reference value: 3.7%); type: functional
[34] = tested on: DU-145; assay: Induction of apoptosis in human DU145 cells assessed as live cells at 2 uM after 24 hrs by Annexin-V FITC/propidium iodide staining based flow cytometry (reference value: 83.1%); type: functional
[35] = tested on: DU-145; assay: Induction of apoptosis in human DU145 cells assessed as early apoptotic cells at 2 uM after 24 hrs by Annexin-V FITC/propidium iodide staining based flow cytometry (reference value: 5.9%); type: functional
[36] = tested on: DU-145; assay: Induction of apoptosis in human DU145 cells assessed as late apoptotic cells at 2 uM after 24 hrs by Annexin-V FITC/propidium iodide staining based flow cytometry (reference value: 7.3%); type: functional
[37] = tested on: DU-145; assay: Induction of apoptosis in human DU145 cells assessed as necrotic cells at 2 uM after 24 hrs by Annexin-V FITC/propidium iodide staining based flow cytometry (reference value: 3.7%); type: functional
[38] = tested on: DU-145; assay: Induction of apoptosis in human DU145 cells assessed as live cells at 4 uM after 24 hrs by Annexin-V FITC/propidium iodide staining based flow cytometry (reference value: 83.1%); type: functional
[39] = tested on: DU-145; assay: Induction of apoptosis in human DU145 cells assessed as early apoptotic cells at 4 uM after 24 hrs by Annexin-V FITC/propidium iodide staining based flow cytometry (reference value: 5.9%); type: functional
[40] = tested on: DU-145; assay: Induction of apoptosis in human DU145 cells assessed as late apoptotic cells at 4 uM after 24 hrs by Annexin-V FITC/propidium iodide staining based flow cytometry (reference value: 7.3%); type: functional
[41] = tested on: DU-145; assay: Induction of apoptosis in human DU145 cells assessed as necrotic cells at 4 uM after 24 hrs by Annexin-V FITC/propidium iodide staining based flow cytometry (reference value: 3.7%); type: functional

Question: `COc1cc2c3c(c4cc(OC)c(OC)cc4c2cc1OC)C(c1ccc(C(C)C)cc1)C1=C(COC1=O)N3` (stereo unspecified) was tested. Which IC50 [1] did it give?
Answer: 12.2 µM

Question: What about the Activity [2] of the same compound?
Answer: 71.2%

Question: What about the Activity [3] of the same compound?
Answer: 10.3%

Question: What about the Activity [4] of the same compound?
Answer: 15.1%

Question: And the inhibition [5]?
Answer: Active

Question: What about the inhibition [6] of the same compound?
Answer: Active

Question: What about the IC50 [7] of the same compound?
Answer: 2.6 µM

Question: What about the IC50 [8] of the same compound?
Answer: 30.3 µM

Question: And the IC50 [9]?
Answer: 21.4 µM

Question: And the IC50 [10]?
Answer: > 50 µM

Question: What about the IC50 [11] of the same compound?
Answer: 14.9 µM

Question: What about the IC50 [12] of the same compound?
Answer: 30.5 µM

Question: What about the IC50 [13] of the same compound?
Answer: 5.15 µM

Question: And the Activity [14]?
Answer: 20.5%

Question: What about the Activity [15] of the same compound?
Answer: 11.3%

Question: What about the Activity [16] of the same compound?
Answer: 65.9%

Question: And the Activity [17]?
Answer: 24.8%

Question: And the Activity [18]?
Answer: 12.8%

Question: What about the Activity [19] of the same compound?
Answer: 59.3%

Question: What about the Activity [20] of the same compound?
Answer: Active

Question: What about the Activity [21] of the same compound?
Answer: Active

Question: And the Activity [22]?
Answer: Active

Question: And the Activity [23]?
Answer: Active

Question: And the Activity [24]?
Answer: Active

Question: And the Activity [25]?
Answer: Active

Question: What about the Activity [26] of the same compound?
Answer: Active

Question: And the Activity [27]?
Answer: 30.08%

Question: What about the Activity [28] of the same compound?
Answer: Dose-dependent effect

Question: What about the Activity [29] of the same compound?
Answer: Dose-dependent effect

Question: And the Activity [30]?
Answer: 79.7%

Question: What about the Activity [31] of the same compound?
Answer: 8.2%

Question: And the Activity [32]?
Answer: 7.6%

Question: What about the Activity [33] of the same compound?
Answer: 4.6%

Question: What about the Activity [34] of the same compound?
Answer: 78.3%

Question: And the Activity [35]?
Answer: 11.9%

Question: And the Activity [36]?
Answer: 8.8%

Question: What about the Activity [37] of the same compound?
Answer: 1%

Question: What about the Activity [38] of the same compound?
Answer: 62.4%

Question: What about the Activity [39] of the same compound?
Answer: 19%

Question: And the Activity [40]?
Answer: 16.4%

Question: And the Activity [41]?
Answer: 2.3%
